In ChEMBL document CHEMBL1146787, “Novel nonpeptidic inhibitors of HIV-1 protease obtained via a new multicomponent chemistry strategy” (Bioorg Med Chem Lett, 2004):
pIC50: −log10 of the molar value.

Legend:
[1] = target: T1, Human immunodeficiency virus type 1 protease (Human immunodeficiency virus 1, UniProt Q72874); test: Inhibitory concentration against Protease
[2] = target: T1, Human immunodeficiency virus type 1 protease; test: Evaluated for inhibition of Protease after CLND/MS correction from the crude mixture
[3] = target: T1, Human immunodeficiency virus type 1 protease; test: Evaluated for inhibition of Protease after resynthesis and purification
[4] = target: T1, Human immunodeficiency virus type 1 protease; test: Evaluated for inhibition of Protease from the crude plate mixture

| Compound | pIC50 [1] | other results |
| --- | --- | --- |
| CCCCNC(=O)C1(C)OC(O)=C(CCc2ccccc2)C1=O (configuration not stated) | < 4.00 |  |
| COc1cc(CC2=C(O)C(C)(C(=O)NC3CC3)OC2=O)cc(OC)c1OC (configuration not stated) | < 3.00 |  |
| CC1(C(=O)NC2CC2)OC(O)=C(CCc2ccccc2)C1=O (configuration not stated) | 3.53 |  |
| CC(C)=CCCC(C)C1=C(O)C(C)(C(=O)NC(C)(C)C)OC1=O (configuration not stated) | 3.82 |  |
| CNC(=O)C1(C)OC(O)=C(C(C)c2ccccc2)C1=O (configuration not stated) | 3.61 |  |
| COCCNC(=O)C1(C)OC(O)=C(C(C)c2ccccc2)C1=O (configuration not stated) | 3.65 |  |
| COc1cc(CC2=C(O)C(C)(C(=O)NC(C)(C)C)OC2=O)cc(OC)c1OC (configuration not stated) | < 3.00 |  |
| C[C@H](C1=C(O)C(CCc2ccccc2)(C(=O)NCc2ccc(C(C)(C)C)cc2)OC1=O)c1ccccc1 (single isomer, unassigned) | 4.08 | pIC50 [2]: 5.92; pIC50 [3]: 5.34 |
| CN(C(=O)OC(C)(C)C)C1=C(O)C(CCc2ccccc2)(C(=O)NCC2CCCO2)OC1=O (configuration not stated) | 3.71 |  |
| COc1cc(CC2=C(O)C(CCc3ccccc3)(C(=O)NCC(C)(C)C)OC2=O)cc(OC)c1OC (configuration not stated) | < 3.00 |  |
| CC(C1=C(O)C(C)(C(=O)NC(C)(C)C)OC1=O)c1ccccc1 (configuration not stated) | 3.98 |  |
| CC(C)(C)NC(=O)C1(CCc2ccccc2)OC(O)=C(c2c[nH]c3ccccc23)C1=O (configuration not stated) | 3.97 |  |
| C[C@H](C1=C(O)[C@@](CCc2ccccc2)(C(=O)NCc2ccc(C(C)(C)C)cc2)OC1=O)c1ccccc1 |  | pIC50 [3]: 5.27 |
| CNC1=C(O)C(CCc2ccccc2)(C(=O)NCC2CCCO2)OC1=O (configuration not stated) | < 3.00 |  |

Continued, in another order:

| pIC50 [1] | Compound | other results |
| --- | --- | --- |
| 4.33 | CN(C(=O)OC(C)(C)C)C1=C(O)C(CCc2ccccc2)(C(=O)NC(C)(C)C)OC1=O (configuration not stated) |  |
| 5.52 | CC(C)(C)NC(=O)C1(CCc2ccccc2)OC(O)=C(CCc2ccccc2)C1=O (configuration not stated) |  |
| 6.00 | CC(C)=CCCC(C)C1=C(O)C(CCc2ccccc2)(C(=O)NC(C)(C)C)OC1=O (configuration not stated) | pIC50 [2]: 5.89; pIC50 [3]: 5.89; pIC50 [4]: 4.82 |
| 4.51 | CC(C1=C(O)OC(C(=O)NCCc2ccc(Cl)cc2)(C(C)C)C1=O)c1ccccc1 (configuration not stated) |  |
| 4.57 | CC(C)(C)NC(=O)C1(CCc2ccccc2)OC(O)=C(c2ccc(-c3ccccc3)cc2)C1=O (configuration not stated) |  |
| 4.15 | CC(C)(C)NC(=O)C1(C)OC(O)=C(CCc2ccccc2)C1=O (configuration not stated) |  |
| 5.30 | CC(C1=C(O)[C@@](CCc2ccccc2)(C(=O)NCc2ccc(C(C)(C)C)cc2)OC1=O)c1ccccc1 (some centres not stated) |  |
| 5.40 | CC(C1=C(O)C(CCc2ccccc2)(C(=O)NC(C)(C)C)OC1=O)c1ccccc1 (configuration not stated) | pIC50 [2]: 5.39; pIC50 [3]: 5.70; pIC50 [4]: 5.22 |
| 4.96 | CC(C)(C)NC(=O)C1(CCc2ccccc2)OC(O)=C(Cc2ccccc2)C1=O (configuration not stated) |  |
| 4.77 | CC(C)(C)NC(=O)C1(CCc2ccccc2)OC(O)=C(c2ccc(C(C)(C)C)cc2)C1=O (configuration not stated) |  |
